What was measured:
Assay in all cases: relative viability (nuclei count vs DMSO), 5 days (fraction); higher = more cells survive
Carboplatin + Luminespib = compound: C1CC(C1)(C(=O)O)C(=O)O.[NH2-].[NH2-].[Pt+2] [Carboplatin] + CCNC(=O)c1noc(-c2cc(C(C)C)c(O)cc2O)c1-c1ccc(CN2CCOCC2)cc1 [Luminespib] (partner 0.01 µM)
Outline: (§1)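 Lung cancer cell lines, seeded in 1536-well plates, were treated the following day by pin tool with a single drug or with five library-drug doses (not always all listed) in √10 steps on top of a fixed anchor-drug dose. Cells were fixed and nuclei stained in one step after 5 days, and nuclei were counted. Relative viability is the nuclei count for treated wells divided by that for vehicle wells, reported as medians of duplicate plates.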

GSK126 + AZD7762 = compound: CC[C@H](C)N1C=C(C2=C(C=C(C=C21)C3=CN=C(C=C3)N4CCNCC4)C(=O)NCC5=C(C=C(NC5=O)C)C)C [GSK126] + NC(=O)Nc1cc(-c2cccc(F)c2)sc1C(=O)N[C@H]1CCCNC1 [AZD7762] (partner 0.2 µM)
Outline: as §1

GSK126 + Phenformin = compound: CC[C@H](C)N1C=C(C2=C(C=C(C=C21)C3=CN=C(C=C3)N4CCNCC4)C(=O)NCC5=C(C=C(NC5=O)C)C)C [GSK126] + N=C(N)NC(=N)NCCc1ccccc1 [Phenformin] (partner 250 µM)
Outline: as §1

GSK126 + Tozasertib = compound: CC[C@H](C)N1C=C(C2=C(C=C(C=C21)C3=CN=C(C=C3)N4CCNCC4)C(=O)NCC5=C(C=C(NC5=O)C)C)C [GSK126] + Cc1cc(Nc2cc(N3CCN(C)CC3)nc(Sc3ccc(NC(=O)C4CC4)cc3)n2)n[nH]1 [Tozasertib] (partner 0.1 µM)
Outline: as §1

Row | Cell Line | relative viability (Carboplatin + Luminespib; first compound 0.08 µM) | relative viability (Carboplatin + Luminespib; first compound 0.253 µM) | relative viability (Carboplatin + Luminespib; first compound 0.8 µM) | relative viability (Carboplatin + Luminespib; first compound 2.53 µM) | relative viability (Carboplatin + Luminespib; first compound 8 µM) | relative viability (GSK126 + AZD7762; first compound 0.08 µM) | relative viability (GSK126 + AZD7762; first compound 0.253 µM) | relative viability (GSK126 + AZD7762; first compound 0.8 µM) | relative viability (GSK126 + AZD7762; first compound 2.53 µM) | relative viability (GSK126 + AZD7762; first compound 8 µM) | relative viability (GSK126 + Phenformin; first compound 0.08 µM) | relative viability (GSK126 + Phenformin; first compound 0.253 µM) | relative viability (GSK126 + Phenformin; first compound 0.8 µM) | relative viability (GSK126 + Phenformin; first compound 2.53 µM) | relative viability (GSK126 + Phenformin; first compound 8 µM) | relative viability (GSK126 + Tozasertib; first compound 0.08 µM) | relative viability (GSK126 + Tozasertib; first compound 0.253 µM) | relative viability (GSK126 + Tozasertib; first compound 0.8 µM) | relative viability (GSK126 + Tozasertib; first compound 2.53 µM) | relative viability (GSK126 + Tozasertib; first compound 8 µM)
1 | NCI-H1975 | 0.227 | 0.227 | 0.17 | 0.18 | 0.113 | 0.775 | 0.703 | 0.682 | 0.784 | 0.64 | 0.465 | 0.412 | 0.392 | 0.422 | 0.405 | 0.833 | 0.69 | 0.762 | 0.648 | 0.48
2 | NCI-H1993 | 1.13 | 0.812 | 0.818 | 0.884 | 0.698 | 0.836 | 0.754 | 0.702 | 0.9 | 0.795 | 0.501 | 0.546 | 0.501 | 0.522 | 0.554 | 0.586 | 0.639 | 0.585 | 0.659 | 0.649
3 | NCI-H2085 | 0.454 | 0.419 | 0.494 | 0.488 | 0.377 | 1.03 | 0.973 | 0.927 | 0.907 | 0.957 | 0.871 | 0.667 | 0.677 | 0.725 | 0.732 | 0.918 | 0.734 | 0.76 | 0.72 | 0.654
4 | NCI-H2087 | 0.158 | 0.168 | 0.121 | 0.138 | 0.165 | 1.52 | 1.31 | 1.18 | 1.41 | 1.43 | 0.457 | 0.39 | 0.448 | 0.449 | 0.487 | 0.23 | 0.222 | 0.214 | 0.202 | 0.258
5 | NCI-H2126 | 0.862 | 1.07 | 0.992 | 0.931 | 0.695 | 1.13 | 0.988 | 0.974 | 0.945 | 1.06 | 0.512 | 0.534 | 0.554 | 0.535 | 0.507 | 1 | 0.835 | 0.871 | 0.838 | 0.812
6 | NCI-H2170 | 0.911 | 0.783 | 0.47 | 0.351 | 0.283 | 0.951 | 0.966 | 0.823 | 0.86 | 0.815 | 0.386 | 0.427 | 0.393 | 0.391 | 0.376 | 0.697 | 0.661 | 0.764 | 0.651 | 0.661
7 | NCI-H2342 | 0.898 | 0.789 | 0.68 | 0.788 | 0.608 | 0.543 | 0.425 | 0.477 | 0.619 | 0.58 | 0.942 | 0.566 | 0.558 | 0.525 | 0.759 | 0.538 | 0.471 | 0.613 | 0.507 | 0.597
8 | NCI-H2347 | 0.573 | 0.421 | 0.368 | 0.432 | 0.352 | 0.757 | 0.707 | 0.711 | 0.723 | 0.783 | 0.488 | 0.444 | 0.499 | 0.352 | 0.409 | 0.664 | 0.603 | 0.635 | 0.597 | 0.444
